# Assay results reported in BindingDB's records for doi:10.1021/jm010801s (2002).
# Biological target: Cathepsin K (Oryctolagus cuniculus) (UniProt P43236)
# Assay: Inhibition of recombinant rabbit Cathepsin K in a fluorescence assay
# Sequence of Cathepsin K (Oryctolagus cuniculus) (P43236 whole entry, looked up): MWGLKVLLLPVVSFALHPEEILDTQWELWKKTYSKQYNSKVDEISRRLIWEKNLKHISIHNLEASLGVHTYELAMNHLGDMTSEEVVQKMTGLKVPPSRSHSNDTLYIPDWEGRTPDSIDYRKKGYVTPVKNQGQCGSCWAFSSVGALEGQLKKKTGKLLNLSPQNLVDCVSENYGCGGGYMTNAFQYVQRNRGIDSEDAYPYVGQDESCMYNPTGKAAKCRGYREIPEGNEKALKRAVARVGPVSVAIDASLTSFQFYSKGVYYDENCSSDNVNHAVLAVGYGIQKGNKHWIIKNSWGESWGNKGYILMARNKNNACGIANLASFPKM
row,SMILES,IC50 [nM]
1,CC(C)C[C@H](NC(=O)OCc1ccccc1)C(=O)NCCNc1ccccc1 [[3-Methyl-1-(2-phenylamino-ethylcarbamoyl)-butyl]-carbamic acid benzyl ester],470
2,CC(C)C[C@H](NC(=O)OCc1ccccc1)C(=O)NCCNc1ccc(Cl)cc1 [{1-[2-(4-Chloro-phenylamino)-ethylcarbamoyl]-3-methyl-butyl}-carbamic acid benzyl ester],350
3,Cc1ccc(NCCNC(=O)[C@H](CC(C)C)NC(=O)OCc2ccccc2)cc1 [[3-Methyl-1-(2-p-tolylamino-ethylcarbamoyl)-butyl]-carbamic acid benzyl ester],190

# Results, then the molecule that gave them:
row,IC50 [nM],SMILES
1,> 1000,CC(C)C[C@H](NC(=O)OCc1ccccc1)C(=O)NCCNc1cccc(Cl)c1 [{1-[2-(3-Chloro-phenylamino)-ethylcarbamoyl]-3-methyl-butyl}-carbamic acid benzyl ester]
2,460,Cc1cccc(NCCNC(=O)[C@H](CC(C)C)NC(=O)OCc2ccccc2)c1 [[3-Methyl-1-(2-m-tolylamino-ethylcarbamoyl)-butyl]-carbamic acid benzyl ester]
3,> 1000,COc1cccc(NCCNC(=O)[C@H](CC(C)C)NC(=O)OCc2ccccc2)c1 [{1-[2-(3-Methoxy-phenylamino)-ethylcarbamoyl]-3-methyl-butyl}-carbamic acid benzyl ester]
